Assay results as given in US20240400591A1 (Jacobio Pharmaceuticals Co., Ltd., priority 2021, published 2024).
Like-named read-outs stand apart in the source and are kept apart here.

Tests used:
[1] = tested on: NUGC-3_P53_Luc single clonal cell line (p53 Y220C); assay: Reporter gene assay (p53 RE luciferase); format: cell-based
In short: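 NUGC-3 cells stably carrying a p53 RE-driven luc2P reporter, washed free of phenol red, exposed to compound for 6 h at 37 °C; luminescence read. Activity normalised between DMSO (low) and Ref-1a 10 μM (high) controls; EC50 from 4-parameter logistic fit or Excel as concentration giving 50% activity.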

[2] = molecular target: T1, His-p53 Y220C (94-294) protein (Homo sapiens, UniProt P04637, Y220C); assay: In vitro DNA binding assay (HTRF); format: biochemical; settings: % activation normalized to 2 μM Ref-1a high control
T1 construct: His-p53 Y220C (94-294) protein

NUGC3 (P53 Y220C) = assay: Cell viability assay (CellTiter-Glo, 6 days), NUGC3; format: cell-based
In short: (§1)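 Cells seeded overnight at 37 °C, then exposed to compounds in medium for 6 days. Viability read by CellTiter-Glo luminescence, normalized to DMSO cell wells (high) and medium-only wells (low); IC50 taken as concentration giving 50% viability from 4-parameter logistic fit.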

NUGC4 (P53 WT) = assay: Cell viability assay (CellTiter-Glo, 6 days), NUGC4; format: cell-based
In short: as §1

[3] = Homo sapiens, NUGC-3, luciferase reporter, 6 hours, normalized to Ref-1a (10 μM) high control, read-out: p53(Y220C)_NUGC-3 EC50
[4] = Homo sapiens, NUGC-3, 144 h, cell viability, 6 days, CellTiter-Glo, read-out: NUGC3 (P53 Y220C) IC50
[5] = Homo sapiens, NUGC-4, 144 h, cell viability, 6 days, CellTiter-Glo, read-out: NUGC4 (P53 WT) IC50

Row | SMILES | EC50 [1, 3] [µM] | EC50 [2] [nM] | IC50 (NUGC3 (P53 Y220C); [4]) [µM] | IC50 (NUGC4 (P53 WT); [5]) [µM] | EC50 ([1]; Homo sapiens, NUGC-3, 6 h, read-out: p53(Y220C)_NUGC-3 EC50 (μM)) [µM] | IC50 (NUGC3 (P53 Y220C); Homo sapiens, NUGC-3, 144 h, read-out: NUGC3 (P53 Y220C) IC50 (μM)) [µM] | IC50 (NUGC4 (P53 WT); Homo sapiens, NUGC-4, 144 h, read-out: NUGC4 (P53 WT) IC50 (μM)) [µM] | EC50 ([1]; luciferase reporter, 6 hours, normalized to Ref-1a (10 μM) high control, read-out: p53(Y220C)_NUGC-3 EC50) [µM] | IC50 (NUGC3 (P53 Y220C); cell viability, 6 days, CellTiter-Glo, read-out: NUGC3 (P53 Y220C) IC50) [µM] | IC50 (NUGC4 (P53 WT); cell viability, 6 days, CellTiter-Glo, read-out: NUGC4 (P53 WT) IC50) [µM]
1 | COc1cc(P(C)(C)=O)ccc1NCC#Cc1sc2c(NC3CCN(CC4CC4)C[C@@H]3F)cccc2c1CC(F)(F)F (mixture of isomers) [Example 102, (4-((3-(7-(((Z)-1-(cyclopropylmethyl)-3-fluoropiperidin-4-yl)amino)-3-(2,2,2-trifluoroethyl)benzo[b]thiophen-2-yl)prop-2-yn-1-yl)amino)-3-methoxyphenyl)dimethylphosphine oxide] | 0.11 | 64 | 0.81 | 1.92 | – | – | – | – | – | –
2 | COCCNC(=O)c1cc(P(C)(C)=O)ccc1NCC#Cc1sc2c(N[C@@H]3CCN(C)C[C@@H]3Cl)cccc2c1CC(F)(F)F [Example 219, 2-((3-(7-(((3S,4R)-3-chloro-1-methylpiperidin-4-yl)amino)-3-(2,2,2-trifluoroethyl)benzo[b]thiophen-2-yl)prop-2-yn-1-yl)amino)-5-(dimethylphosphoryl)-N-(2-methoxyethyl)benzamide] | – | 45 | – | – | 0.09 | 0.36 | 19.5 | – | – | –
3 | CNC(=O)c1cc(NCC#Cc2sc3c(N[C@@H]4CCN(C5CCOCC5)C[C@@H]4F)cccc3c2CC(F)(F)F)c(OC)cc1P(C)(C)=O [Example 160, 2-dimethylphosphoryl-5-[3-[7-[[(3S,4R)-3-fluoro-1-tetrahydropyran-4-yl-4-piperidyl]amino]-3-(2,2,2-trifluoroethyl)benzothiophen-2-yl]prop-2-ynylamino]-4-methoxy-N-methyl-benzamide] | 0.19 | 41 | 1.41 | > 50 | – | – | – | – | – | –
4 | CNC(=O)c1ccc(NCC#Cc2sc3c(NC4CCN(C)CC4F)cccc3c2CC(F)(F)F)c(OC)n1 (stereo not drawn) [Example 62, 5-((3-(7-(((Z)-3-fluoro-1-methylpiperidin-4-yl)amino)-3-(2,2,2-trifluoroethyl)benzo[b]thiophen-2-yl)prop-2-yn-1-yl)amino)-6-methoxy-N-methylpicolinamide] | – | 64 | – | – | – | – | – | 0.34 | 1.43 | 3.7
5 | COc1cc(-c2ncn(C)n2)ccc1NCC#Cc1sc2c(N[C@@H]3CCN(C)C[C@@H]3F)cccc2c1CC(F)(F)F [Example 172, (3S,4R)-3-fluoro-N-(2-(3-((2-methoxy-4-(1-methyl-1H-1,2,4-triazol-3-yl)phenyl)amino)prop-1-yn-1-yl)-3-(2,2,2-trifluoroethyl)benzo[b]thiophen-7-yl)-1-methylpiperidin-4-amine] | 0.18 | 60 | 1.51 | 7.55 | – | – | – | – | – | –
6 | COc1nc(P(C)(C)=O)ncc1NCC#Cc1sc2c(N[C@@H]3CCN(C)C[C@@H]3F)cccc2c1CC(F)(F)F [Example 208, (5-((3-(7-(((3S,4R)-3-fluoro-1-methylpiperidin-4-yl)amino)-3-(2,2,2-trifluoroethyl)benzo[b]thiophen-2-yl)prop-2-yn-1-yl)amino)-4-methoxypyrimidin-2-yl)dimethylphosphine oxide] | 0.71 | 43 | 2.13 | 13.7 | – | – | – | – | – | –
